From PubChem BioAssay (NCI)
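Each compound was tested at five concentrations against cells in 96-well plates for 48 hours. TGI marks complete inhibition of growth.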

Assays:
Test in all cases: inhibition of tumour cell growth, NCI panel, 48 h
NCI-H23 lung = tested on: NCI-H23 lung
HCT-15 colon = tested on: HCT-15 colon
LOX IMVI melanoma = tested on: LOX IMVI melanoma
786-0 renal = tested on: 786-0 renal
SR leukemia = tested on: SR leukemia
K-562 leukemia = tested on: K-562 leukemia
PC-3 prostate = tested on: PC-3 prostate
UO-31 renal = tested on: UO-31 renal
NCI-H522 lung = tested on: NCI-H522 lung
OVCAR-8 ovarian = tested on: OVCAR-8 ovarian
SNB-19 CNS = tested on: SNB-19 CNS
NCI/ADR-RES ovarian = tested on: NCI/ADR-RES ovarian
MCF7 breast = tested on: MCF7 breast
CCRF-CEM leukemia = tested on: CCRF-CEM leukemia
BT-549 breast = tested on: BT-549 breast
A498 renal = tested on: A498 renal
MDA-MB-435 = tested on: MDA-MB-435
MDA-N = tested on: MDA-N
M14 melanoma = tested on: M14 melanoma
OVCAR-3 ovarian = tested on: OVCAR-3 ovarian
NCI-H460 lung = tested on: NCI-H460 lung
MALME-3M melanoma = tested on: MALME-3M melanoma
SF-539 CNS = tested on: SF-539 CNS
HT29 colon = tested on: HT29 colon
NCI-H226 lung = tested on: NCI-H226 lung
SW-620 colon = tested on: SW-620 colon
HOP-62 NSCLC = tested on: HOP-62 NSCLC
TK-10 renal = tested on: TK-10 renal
HS 578T breast = tested on: HS 578T breast
RPMI-8226 leukemia = tested on: RPMI-8226 leukemia
HCT-116 colon = tested on: HCT-116 colon
SK-MEL-28 melanoma = tested on: SK-MEL-28 melanoma
HCC-2998 colon = tested on: HCC-2998 colon
KM12 colon = tested on: KM12 colon
IGROV1 ovarian = tested on: IGROV1 ovarian
SK-MEL-2 melanoma = tested on: SK-MEL-2 melanoma
A549 NSCLC = tested on: A549 NSCLC
CAKI-1 renal = tested on: CAKI-1 renal
OVCAR-5 ovarian = tested on: OVCAR-5 ovarian
SN12C renal = tested on: SN12C renal
EKVX NSCLC = tested on: EKVX NSCLC
HL-60(TB) leukemia = tested on: HL-60(TB) leukemia
U251 CNS = tested on: U251 CNS
UACC-257 melanoma = tested on: UACC-257 melanoma
COLO 205 colon = tested on: COLO 205 colon
HOP-92 NSCLC = tested on: HOP-92 NSCLC
T-47D breast = tested on: T-47D breast
UACC-62 melanoma = tested on: UACC-62 melanoma
SK-OV-3 ovarian = tested on: SK-OV-3 ovarian
SF-295 CNS = tested on: SF-295 CNS
SF-268 CNS = tested on: SF-268 CNS
SK-MEL-5 melanoma = tested on: SK-MEL-5 melanoma
OVCAR-4 ovarian = tested on: OVCAR-4 ovarian
ACHN renal = tested on: ACHN renal
MDA-MB-231 breast = tested on: MDA-MB-231 breast

`O=C(O[C@@H](/C=C/c1ccccc1)P1(=O)N(Cc2ccccc2)[C@@H]2CCCC[C@H]2N1Cc1ccccc1)c1ccccc1` gave a TGI (NCI-H23 lung) of 9.22 µM, a TGI (HCT-15 colon) of over 100 µM and a TGI (LOX IMVI melanoma) of 11.1 µM. It also gave a TGI (786-0 renal) of over 100 µM, a TGI (SR leukemia) of over 100 µM and a TGI (K-562 leukemia) of over 100 µM. It also gave a TGI (PC-3 prostate) of over 100 µM, a TGI (UO-31 renal) of 27.4 µM and a TGI (NCI-H522 lung) of over 100 µM. The TGI (OVCAR-8 ovarian) was over 100 µM, the TGI (SNB-19 CNS) was over 100 µM and the TGI (NCI/ADR-RES ovarian) was over 100 µM. The TGI (MCF7 breast) was over 100 µM, the TGI (CCRF-CEM leukemia) was 80.9 µM and the TGI (BT-549 breast) was over 100 µM. The TGI (A498 renal) was over 100 µM, the TGI (MDA-MB-435) was 68.7 µM and the TGI (MDA-N) was over 100 µM. It also gave a TGI (M14 melanoma) of over 100 µM, a TGI (OVCAR-3 ovarian) of over 100 µM and a TGI (NCI-H460 lung) of over 100 µM. For the same molecule, the TGI (MALME-3M melanoma) was over 100 µM, the TGI (SF-539 CNS) was over 100 µM and the TGI (HT29 colon) was over 100 µM. The TGI (NCI-H226 lung) was 9.58 µM, the TGI (SW-620 colon) was over 100 µM and the TGI (HOP-62 NSCLC) was over 100 µM. The TGI (TK-10 renal) was over 100 µM, the TGI (HS 578T breast) was over 100 µM and the TGI (RPMI-8226 leukemia) was 6.24 µM. For the same molecule, the TGI (HCT-116 colon) was over 100 µM, the TGI (SK-MEL-28 melanoma) was over 100 µM and the TGI (HCC-2998 colon) was over 100 µM. It also gave a TGI (KM12 colon) of 15.5 µM, a TGI (IGROV1 ovarian) of 15.5 µM and a TGI (SK-MEL-2 melanoma) of 5.42 µM. It also gave a TGI (A549 NSCLC) of over 100 µM, a TGI (CAKI-1 renal) of 4.41 µM and a TGI (OVCAR-5 ovarian) of over 100 µM. The TGI (SN12C renal) was 40.8 µM, the TGI (EKVX NSCLC) was over 100 µM and the TGI (HL-60(TB) leukemia) was over 100 µM. For the same molecule, the TGI (U251 CNS) was over 100 µM, the TGI (UACC-257 melanoma) was over 100 µM and the TGI (COLO 205 colon) was 4.55 µM. The TGI (HOP-92 NSCLC) was 5.52 µM, the TGI (T-47D breast) was 3.41 µM and the TGI (UACC-62 melanoma) was over 100 µM. For the same molecule, the TGI (SK-OV-3 ovarian) was over 100 µM, the TGI (SF-295 CNS) was over 100 µM and the TGI (SF-268 CNS) was over 100 µM. For the same molecule, the TGI (SK-MEL-5 melanoma) was 4.16 µM, the TGI (OVCAR-4 ovarian) was 6.33 µM and the TGI (ACHN renal) was over 100 µM. The TGI (MDA-MB-231 breast) was 9.18 µM.
